Measured values from PubChem BioAssay (NCI).
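Tested at 5 concentrations; 48 h exposure; 96-well plates; endpoints linearly interpolated, else capped at highest concentration. TGI: total growth inhibition.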

Legend:
Assay in all cases: NCI tumour cell line growth inhibition, 48 h
786-0 renal = test system: 786-0 renal
A498 renal = test system: A498 renal
A549 NSCLC = test system: A549 NSCLC
ACHN renal = test system: ACHN renal
BT-549 breast = test system: BT-549 breast
CCRF-CEM leukemia = test system: CCRF-CEM leukemia
COLO 205 colon = test system: COLO 205 colon
DU-145 prostate = test system: DU-145 prostate
EKVX NSCLC = test system: EKVX NSCLC
HCC-2998 colon = test system: HCC-2998 colon
HCT-116 colon = test system: HCT-116 colon
HCT-15 colon = test system: HCT-15 colon
HL-60(TB) leukemia = test system: HL-60(TB) leukemia
HOP-62 NSCLC = test system: HOP-62 NSCLC
HOP-92 NSCLC = test system: HOP-92 NSCLC
HS 578T breast = test system: HS 578T breast
HT29 colon = test system: HT29 colon
IGROV1 ovarian = test system: IGROV1 ovarian
K-562 leukemia = test system: K-562 leukemia
KM12 colon = test system: KM12 colon
LOX IMVI melanoma = test system: LOX IMVI melanoma
M14 melanoma = test system: M14 melanoma
MALME-3M melanoma = test system: MALME-3M melanoma
MCF7 breast = test system: MCF7 breast
MDA-MB-231 breast = test system: MDA-MB-231 breast
MDA-MB-435 = test system: MDA-MB-435
MDA-N = test system: MDA-N
MOLT-4 leukemia = test system: MOLT-4 leukemia
NCI-H226 lung = test system: NCI-H226 lung
NCI-H23 lung = test system: NCI-H23 lung
NCI-H460 lung = test system: NCI-H460 lung
NCI-H522 lung = test system: NCI-H522 lung
NCI/ADR-RES ovarian = test system: NCI/ADR-RES ovarian
OVCAR-3 ovarian = test system: OVCAR-3 ovarian
OVCAR-4 ovarian = test system: OVCAR-4 ovarian
OVCAR-8 ovarian = test system: OVCAR-8 ovarian
PC-3 prostate = test system: PC-3 prostate
RPMI-8226 leukemia = test system: RPMI-8226 leukemia
RXF 393 renal = test system: RXF 393 renal
SF-268 CNS = test system: SF-268 CNS
SF-295 CNS = test system: SF-295 CNS
SF-539 CNS = test system: SF-539 CNS
SK-MEL-28 melanoma = test system: SK-MEL-28 melanoma
SK-OV-3 ovarian = test system: SK-OV-3 ovarian
SN12C renal = test system: SN12C renal
SNB-75 CNS = test system: SNB-75 CNS
SR leukemia = test system: SR leukemia
SW-620 colon = test system: SW-620 colon
T-47D breast = test system: T-47D breast
TK-10 renal = test system: TK-10 renal
U251 CNS = test system: U251 CNS
UACC-257 melanoma = test system: UACC-257 melanoma
UACC-62 melanoma = test system: UACC-62 melanoma
UO-31 renal = test system: UO-31 renal
CAKI-1 renal = test system: CAKI-1 renal
OVCAR-5 ovarian = test system: OVCAR-5 ovarian
SK-MEL-2 melanoma = test system: SK-MEL-2 melanoma
SK-MEL-5 melanoma = test system: SK-MEL-5 melanoma
SNB-19 CNS = test system: SNB-19 CNS

CCc1c(N=[N+]=[N-])c2ccccc2oc1=O
TGI (786-0 renal): > 100 µM
TGI (A498 renal): > 100 µM
TGI (A549 NSCLC): > 100 µM
TGI (ACHN renal): > 100 µM
TGI (BT-549 breast): > 100 µM
TGI (CCRF-CEM leukemia): > 100 µM
TGI (COLO 205 colon): > 100 µM
TGI (DU-145 prostate): > 100 µM
TGI (EKVX NSCLC): > 100 µM
TGI (HCC-2998 colon): > 100 µM
TGI (HCT-116 colon): > 100 µM
TGI (HCT-15 colon): > 100 µM
TGI (HL-60(TB) leukemia): > 100 µM
TGI (HOP-62 NSCLC): > 100 µM
TGI (HOP-92 NSCLC): > 100 µM
TGI (HS 578T breast): > 100 µM
TGI (HT29 colon): > 100 µM
TGI (IGROV1 ovarian): > 100 µM
TGI (K-562 leukemia): > 100 µM
TGI (KM12 colon): > 100 µM
TGI (LOX IMVI melanoma): > 100 µM
TGI (M14 melanoma): > 100 µM
TGI (MALME-3M melanoma): > 100 µM
TGI (MCF7 breast): > 100 µM
TGI (MDA-MB-231 breast): > 100 µM
TGI (MDA-MB-435): > 100 µM
TGI (MDA-N): > 100 µM
TGI (MOLT-4 leukemia): > 100 µM
TGI (NCI-H226 lung): > 100 µM
TGI (NCI-H23 lung): > 100 µM
TGI (NCI-H460 lung): > 100 µM
TGI (NCI-H522 lung): > 100 µM
TGI (NCI/ADR-RES ovarian): > 100 µM
TGI (OVCAR-3 ovarian): > 100 µM
TGI (OVCAR-4 ovarian): > 100 µM
TGI (OVCAR-8 ovarian): > 100 µM
TGI (PC-3 prostate): > 100 µM
TGI (RPMI-8226 leukemia): > 100 µM
TGI (RXF 393 renal): > 100 µM
TGI (SF-268 CNS): > 100 µM
TGI (SF-295 CNS): > 100 µM
TGI (SF-539 CNS): > 100 µM
TGI (SK-MEL-28 melanoma): > 100 µM
TGI (SK-OV-3 ovarian): > 100 µM
TGI (SN12C renal): > 100 µM
TGI (SNB-75 CNS): > 100 µM
TGI (SR leukemia): > 100 µM
TGI (SW-620 colon): > 100 µM
TGI (T-47D breast): > 100 µM
TGI (TK-10 renal): > 100 µM
TGI (U251 CNS): > 100 µM
TGI (UACC-257 melanoma): > 100 µM
TGI (UACC-62 melanoma): > 100 µM
TGI (UO-31 renal): > 100 µM

O=[N+]([O-])C1=Cc2c(O)ccc(O)c2C2c3ccccc3NC12 (configuration not stated)
TGI (786-0 renal): 24.7 µM
TGI (A498 renal): 29.8 µM
TGI (A549 NSCLC): 37.5 µM
TGI (ACHN renal): 16 µM
TGI (BT-549 breast): 25.8 µM
TGI (CAKI-1 renal): 8.99 µM
TGI (CCRF-CEM leukemia): > 22.7 µM
TGI (COLO 205 colon): 33.9 µM
TGI (DU-145 prostate): > 54 µM
TGI (EKVX NSCLC): 28.6 µM
TGI (HCC-2998 colon): 24.7 µM
TGI (HCT-116 colon): 22.7 µM
TGI (HCT-15 colon): 36.4 µM
TGI (HL-60(TB) leukemia): > 21 µM
TGI (HOP-62 NSCLC): 25 µM
TGI (HOP-92 NSCLC): 20.7 µM
TGI (HS 578T breast): > 57 µM
TGI (HT29 colon): 26.4 µM
TGI (IGROV1 ovarian): 32.7 µM
TGI (K-562 leukemia): > 100 µM
TGI (KM12 colon): 24.4 µM
TGI (LOX IMVI melanoma): > 52.7 µM
TGI (M14 melanoma): 28.2 µM
TGI (MCF7 breast): 11.8 µM
TGI (MDA-MB-231 breast): 31.4 µM
TGI (MDA-MB-435): 28.6 µM
TGI (MDA-N): 39.3 µM
TGI (MOLT-4 leukemia): > 44.5 µM
TGI (NCI-H226 lung): > 100 µM
TGI (NCI-H23 lung): 15.8 µM
TGI (NCI-H460 lung): 33.5 µM
TGI (NCI-H522 lung): 5.48 µM
TGI (NCI/ADR-RES ovarian): 51 µM
TGI (OVCAR-3 ovarian): 19.3 µM
TGI (OVCAR-4 ovarian): 30.1 µM
TGI (OVCAR-5 ovarian): 34.1 µM
TGI (OVCAR-8 ovarian): > 42.6 µM
TGI (PC-3 prostate): 19 µM
TGI (RPMI-8226 leukemia): 63.6 µM
TGI (RXF 393 renal): 26.4 µM
TGI (SF-268 CNS): 36.6 µM
TGI (SF-295 CNS): 31.5 µM
TGI (SF-539 CNS): 63 µM
TGI (SK-MEL-2 melanoma): 40.1 µM
TGI (SK-MEL-28 melanoma): 43 µM
TGI (SK-MEL-5 melanoma): 27.6 µM
TGI (SK-OV-3 ovarian): > 100 µM
TGI (SN12C renal): 30.9 µM
TGI (SNB-19 CNS): 34.5 µM
TGI (SNB-75 CNS): > 61.3 µM
TGI (SR leukemia): > 64.3 µM
TGI (SW-620 colon): > 47.1 µM
TGI (T-47D breast): > 55.8 µM
TGI (TK-10 renal): 30 µM
TGI (U251 CNS): 29.4 µM
TGI (UACC-257 melanoma): 29.3 µM
TGI (UACC-62 melanoma): 22.7 µM
TGI (UO-31 renal): 11.8 µM
